In ChEMBL document CHEMBL3091411, “Quercetin inhibits inflammatory bone resorption in a mouse periodontitis model” (J Nat Prod, 2013) one finds inhibition, Activity and CFU data, which are given here for one compound.

SMILES strings stand for the structures. Active and inactive are the calls of the source. The rule behind the calls is not given here.

Data set [1] concerns Mus musculus. As to the kind of experiment: Antiinflammatory activity in Aggregatibacter actinomycetemcomitans infected Balb/c mouse model assessed as inhibition of IL-1beta production at 100 mg/kg, sc for 15 days post Aggregatibacter actinomycetemcomitans-challenge by ELISA. Type of data set: functional, organism-based. Set-up: dose 100 mg/kg.
Data set [2] deals with Mus musculus. Nature of the data set: Antiperiodontitic activity in Aggregatibacter actinomycetemcomitans infected Balb/c mouse model assessed as downregulation of RANKL expression at 100 mg/kg, sc for 15 days post Aggregatibacter actinomycetemcomitans-challenge by Western blotting analysis. Type of data set: functional, organism-based. Set-up: dose 100 mg/kg.
For data set [3], the system named is Mus musculus. Nature of the data set: Antiperiodontitic activity in Aggregatibacter actinomycetemcomitans infected Balb/c mouse model assessed as inhibition of alveolar bone loss at 100 mg/kg, sc for 15 days post Aggregatibacter actinomycetemcomitans-challenge by methylene blue staining-based microscopic analysis. Type of data set: functional, organism-based. Also noted: dose 100 mg/kg.

The test system of data set [4] is Mus musculus. Nature of the data set: Effect on OPG expression in Aggregatibacter actinomycetemcomitans infected Balb/c mouse model at 100 mg/kg, sc for 15 days post Aggregatibacter actinomycetemcomitans-challenge by Western blotting analysis. Type of data set: ADME, organism-based. Also noted: dose 100 mg/kg, route subcutaneous. Conditions: in vivo, 360 h.
The test system of data set [5] is Aggregatibacter actinomycetemcomitans. As to the kind of experiment: Antimicrobial activity against Aggregatibacter actinomycetemcomitans infected in Balb/c mouse measured per 10^6 colonies at 100 mg/kg, sc measured 14 days post-infection by Gram staining technique (reference value: 6.41 +/- 0.96). Type of data set: functional. Conditions: route subcutaneous.
Data set [6] relates to Mus musculus. As to the kind of experiment: Antiinflammatory activity in Aggregatibacter actinomycetemcomitans infected Balb/c mouse model assessed as inhibition of IL-17 production at 100 mg/kg, sc for 15 days post Aggregatibacter actinomycetemcomitans-challenge by ELISA. The format is functional, organism-based. Set-up: dose 100 mg/kg.
For data set [7], the system named is Mus musculus. As to the kind of experiment: Antiperiodontitic activity in Aggregatibacter actinomycetemcomitans infected Balb/c mouse model assessed as downregulation of ICAM-1 expression at 100 mg/kg, sc for 15 days post Aggregatibacter actinomycetemcomitans-challenge by Western blotting analysis. The format is functional, organism-based. Also noted: dose 100 mg/kg.

Data set [8] deals with Mus musculus. Nature of the data set: Antiinflammatory activity in Aggregatibacter actinomycetemcomitans infected Balb/c mouse model assessed as inhibition of TNFalpha production at 100 mg/kg, sc for 15 days post Aggregatibacter actinomycetemcomitans-challenge by ELISA. The format is functional, organism-based. Also noted: dose 100 mg/kg.

As for `O=c1c(O)c(-c2ccc(O)c(O)c2)oc2cc(O)cc(O)c12` [QUERCETIN], the inhibition entry in data set [1], in data set [3], in data set [6] and in data set [8] was “Active” each time. The outcome in data set [2] and in data set [7] was Active. In addition, the Activity result in data set [4] is reported as “Non-toxic”. The CFU in data set [5] is 5.86.
